What all share (type): in vivo, Wistar rats
A short description of data set [1]: Body weight during 14-day oral treatment before heat stroke. As to the method:
Eight male rats of Wistar/Han IGS strain (Charles River Laboratories, 69-St-Germain sur l'Arbresle—France) weighing 300 to 320 g are used. On receipt, the rats are housed, four to a cage, in 48×27×20 cm polycarbonate cages (U.A.R., 91-Epinay-Sur-Orge, France) in a controlled environment (50±5% humidity; temperature 22±1° C.; lighting from 20:00 h to 08:00 h, i.e. an inverted lightness/darkness cycle: 12 h/12 h).
The rats are weighed each day for the fourteen days of the treatment in order to determine their body weight change.

The test system of data set [2] is cognitive performances after heat stroke. Nature of the data set: Morris water labyrinth test after heat stroke. How it is done:
(§1) After each daily administration of the product, the rats have free access to standard food granules.
(§2) On the 16th day, after fasting over night, the conscious rats of the various groups, with the exception of those of the vehicle group, are exposed to a heat stroke by placing them in a temperature-controlled chamber at 40° C. with a relative humidity of 50% for 120 minutes. The rats expressed their normal heat-regulating behavior. Immediately after the heat stroke, the rats with a rectal temperature of between 41.5° C. and 42° C. are included in the study. The rats returned to their cage at 22° C.
The Morris water labyrinth (1984) makes it possible to test the capacity for spatial orientation and the processes of learning and memorization. On the 20th and 21st days (D20 and D21), the rats are tested in the water labyrinth device to evaluate the spatial learning performances and their long-term memory. The experimental procedure consists in training rats, on the 20th day, to find a hidden platform (10 mm below the surface of the water) at a fixed point in the water tank (150 cm in diameter) in a series of five tests starting from the same starting point.
During the first test, the platform is placed against the wall of the tank. During the second test, the platform is placed 5 cm from the wall of the tank to allow the rats to find the platform easily. During the following three tests, the platform is placed 10 cm from the wall of the tank. Each test is followed by a 30-second rest period on the platform.
On the 21st day, the platform is placed at a distance from the wall of the tank in the same place as during the session on the 20th day and the long-term memory of the rats is tested in a single test.
The variable recorded in the water tank is the latency time required to get out of the water and reach the platform serving as a refuge arranged in the basin.

For data set [3] the test system is unchanged. Nature of the data set: Light extinction test after heat stroke. Conditions: day 18, after heat stroke. As to the method: as §1, §2
Three days after exposure to the heat stroke, on day 18 (D18), the rats are tested for the preventive antioxidant effects of the two CPEs on the learning performances, by using the light extinction test. The experimental device consists of a brightly lit cage (50×40×37 cm). The level of lighting in the test cage is 1200 lux.
During the test session, the rats are placed individually in the cage for 20 minutes to learn how to control the light environment.

For data set [4], the system named is leukocyte free radicals. Nature of the data set: Free radicals in the blood after heat stroke (pholasine chemiluminescence). The note with it: after heat stroke 40° C., 120 min; 14 days oral CPE1 22.9, CPE2 24.3, vitamin E 200 mg/kg/day. How it is done: as §1, §2
On the 16th day, 500 μl of blood samples were collected from the tail vein of 12 rats of each group, into tubes containing heparin to check the increase in free radicals after exposure to the heat stroke. On the basis of the chemiluminescence of pholasine, a photo-protein from the marine mollusc Pholas dactylus, the production of leukocyte free radicals was measured using a kit (Knight Scientific, Cell Activation Test Kits for Whole Blood with Adjuvant-K) by activation of the NADPH oxydase complex in diluted blood (In CytoTox laboratory, Nancy, France).

In the case of `Cc1c(C)c2c(c(C)c1O)CC[C@@](C)(CCC[C@H](C)CCC[C@H](C)CCCC(C)C)O2` [Vitamin E, α-tocopherol], the “Body weight” value in data set [1] (Day 1, oral daily CPE1 22.9, CPE2 24.3, vitamin E 200 mg/kg) came to 320.9 ± 15.4 g; in data set [1] (Day 3) it was 328.9 ± 15.8 g; in data set [1] (Day 4) it was 330.6 ± 15.7 g; in data set [1] (Day 5), 333.9 ± 16.5 g; in data set [1] (Day 6), 336.6 ± 15.9 g; in data set [1] (Day 7) it was 339.4 ± 17.3 g. Moreover, the “Body weight” value in data set [1] (Day 8) is 342.1 ± 17.2 g; in data set [1] (Day 11) it was 351.6 ± 18.0 g; in data set [1] (Day 12) it was 354.6 ± 18.8 g. For the same molecule, the “Latency for reaching the platform (Mean ± SEM)” value is given as 51.75 ± 6.45 s in data set [2] (Day 20, Test 1); 25.38 ± 4.94 s in data set [2] (Day 20, Test 2); 26.44 ± 5.20 s in data set [2] (Day 20, Test 3); 17.75 ± 2.44 s in data set [2] (Day 20, Test 4); 13.56 ± 1.37 s in data set [2] (Day 20, Test 5); 14.69 ± 2.22 s in data set [2] (Day 21, Test 6). Further, the “Discrimination of the levers” value in data set [3] was “pressed the active lever more than the inactive lever”. Besides, in data set [3], the “Number of active lever presses (ALP) (mean ± SEM)” value was determined as 27.28 ± 3.54. In data set [3], the “Number of inactive lever presses (ILP) (mean ± SEM)” value was 17.60 ± 2.47. In data set [3] (n = 16/group), the “Total number of lever presses (Mean ± SEM)” value came out at 42.38 ± 5.76. For the same molecule, the “Free radical content in the plasma on the 16th day (Mean ± SEM)” value in data set [4] is listed as 311.15 ± 20.56 mV.

(Values after patent US8435576B2, “Use of cocoa polyphenols for treating a prostate hyperplasia, a specific cocoa extract and applications” (Barry Callebaut AG, priority 2005, dated 2013).)
